Results on 17 molecules are retold here after patent publication US8871753B2, “Macrocyclic compounds and their use as kinase inhibitors” (Incyte Corporation, priority 2008, dated 2014).

Format in all cases: biochemical
For assay [1], the target named is T1, human JAK3 (a.a. 781-1124) (Homo sapiens, UniProt P52333).
T1 construct: JAK3 (a.a. 781-1124); His tag (N); made in house; host or cells: insect cells (baculovirus)
Description: In vitro JAK kinase assay (HTRF, phosphorylation of a biotinylated peptide), JAK3. Particulars: Table D1. In short, it runs like this: (§1)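 Kinase activity was measured as phosphorylation of a biotinylated peptide, with ATP at 90 μM for JAK1, 30 μM for JAK2 and 3 μM for JAK3. Reactions ran 1 hr at room temperature, were stopped with EDTA plus SA-APC and Eu-Py20, and were read by HTRF after 40 minutes of antibody binding.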

Assay [2] has as its target T2, human JAK1 (a.a. 837-1142) (Homo sapiens, UniProt P23458).
T2 construct: human JAK1 (a.a. 837-1142); His tag (N); made in house; host or cells: insect cells (baculovirus)
Description: In vitro JAK kinase assay (HTRF, phosphorylation of a biotinylated peptide), JAK1. To be noted: Table D1; read-out: JAK1 IC50. In short, it runs like this: as §1
For orientation: Time-resolved FRET reads energy transfer from a long-lived donor to a nearby acceptor.

Assay [3] deals with T3, human JAK2 (a.a. 828-1132) (Homo sapiens, UniProt O60674).
T3 construct: JAK2 (a.a. 828-1132); His tag (N); made in house; host or cells: insect cells (baculovirus)
T3 sequence (O60674 828-1132): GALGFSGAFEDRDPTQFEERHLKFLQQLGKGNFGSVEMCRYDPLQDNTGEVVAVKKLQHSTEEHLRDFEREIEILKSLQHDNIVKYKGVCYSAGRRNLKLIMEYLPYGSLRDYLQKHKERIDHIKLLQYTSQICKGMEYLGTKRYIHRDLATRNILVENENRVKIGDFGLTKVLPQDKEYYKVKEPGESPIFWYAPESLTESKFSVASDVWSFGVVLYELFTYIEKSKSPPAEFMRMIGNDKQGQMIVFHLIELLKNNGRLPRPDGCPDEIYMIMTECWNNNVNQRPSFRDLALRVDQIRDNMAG
Briefly: In vitro JAK kinase assay (HTRF, phosphorylation of a biotinylated peptide), JAK2. Particulars: Table D1. In outline: as §1

The target in assay [4] is TYK2 (Homo sapiens, UniProt P29597). Briefly: TYK2 kinase inhibition (Table A1). Particulars: Table D1.
TYK2, sequence (P29597 whole entry): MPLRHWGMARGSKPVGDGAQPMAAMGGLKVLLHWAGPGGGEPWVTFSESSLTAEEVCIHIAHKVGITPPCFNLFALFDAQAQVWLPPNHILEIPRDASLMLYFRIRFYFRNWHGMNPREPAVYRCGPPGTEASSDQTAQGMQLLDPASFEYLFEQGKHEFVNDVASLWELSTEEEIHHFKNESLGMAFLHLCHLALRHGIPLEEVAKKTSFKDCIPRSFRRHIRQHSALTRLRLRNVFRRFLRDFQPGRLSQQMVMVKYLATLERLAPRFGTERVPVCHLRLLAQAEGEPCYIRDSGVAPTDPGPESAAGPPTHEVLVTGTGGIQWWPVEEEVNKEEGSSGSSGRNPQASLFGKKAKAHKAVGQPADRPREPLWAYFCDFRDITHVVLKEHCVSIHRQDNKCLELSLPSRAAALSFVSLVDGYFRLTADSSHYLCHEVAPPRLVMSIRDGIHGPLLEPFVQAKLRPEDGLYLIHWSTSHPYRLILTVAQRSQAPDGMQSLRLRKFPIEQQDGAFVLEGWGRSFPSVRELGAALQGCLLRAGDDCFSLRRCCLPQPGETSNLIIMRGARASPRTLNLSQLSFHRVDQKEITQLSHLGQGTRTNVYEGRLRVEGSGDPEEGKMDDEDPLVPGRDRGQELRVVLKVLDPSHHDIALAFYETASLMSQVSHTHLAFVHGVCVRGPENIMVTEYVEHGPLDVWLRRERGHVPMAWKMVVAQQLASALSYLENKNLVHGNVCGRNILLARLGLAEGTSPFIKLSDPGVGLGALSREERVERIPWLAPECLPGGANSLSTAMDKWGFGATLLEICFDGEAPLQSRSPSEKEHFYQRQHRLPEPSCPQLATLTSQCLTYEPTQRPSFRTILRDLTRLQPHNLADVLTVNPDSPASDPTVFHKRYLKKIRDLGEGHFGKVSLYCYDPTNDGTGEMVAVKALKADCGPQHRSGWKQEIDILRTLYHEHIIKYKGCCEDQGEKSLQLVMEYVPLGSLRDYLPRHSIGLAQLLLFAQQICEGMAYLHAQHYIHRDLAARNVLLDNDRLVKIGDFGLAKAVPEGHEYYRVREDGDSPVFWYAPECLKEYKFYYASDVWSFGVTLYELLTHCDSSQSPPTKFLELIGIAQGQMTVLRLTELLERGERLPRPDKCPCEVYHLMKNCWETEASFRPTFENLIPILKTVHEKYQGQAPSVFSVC

SMILES strings stand for the structures. Counter-ions that a name gives are not always drawn.

T1 sequence (P52333 781-1124): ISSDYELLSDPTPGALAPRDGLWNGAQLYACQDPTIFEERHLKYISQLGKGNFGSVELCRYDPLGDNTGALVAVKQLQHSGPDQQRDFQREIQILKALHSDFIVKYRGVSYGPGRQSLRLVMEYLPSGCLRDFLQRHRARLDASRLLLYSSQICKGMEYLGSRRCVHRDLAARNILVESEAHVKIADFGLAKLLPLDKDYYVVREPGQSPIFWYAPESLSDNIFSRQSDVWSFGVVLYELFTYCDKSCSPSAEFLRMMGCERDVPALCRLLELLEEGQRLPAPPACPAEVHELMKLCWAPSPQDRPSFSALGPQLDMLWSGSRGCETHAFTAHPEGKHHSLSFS
T2 sequence (P23458 849-1154): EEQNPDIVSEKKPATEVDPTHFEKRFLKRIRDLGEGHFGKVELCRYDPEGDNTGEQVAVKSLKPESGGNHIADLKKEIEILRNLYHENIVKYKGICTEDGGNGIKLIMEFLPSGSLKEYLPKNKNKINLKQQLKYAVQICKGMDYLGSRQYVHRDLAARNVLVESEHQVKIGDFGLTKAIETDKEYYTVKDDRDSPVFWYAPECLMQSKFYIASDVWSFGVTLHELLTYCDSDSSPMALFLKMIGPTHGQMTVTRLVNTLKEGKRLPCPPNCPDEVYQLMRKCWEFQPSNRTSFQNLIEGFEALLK

As a reminder, the IC50 is the concentration that gives 50% inhibition. As for `Clc1cnc2nc1Nc1cccc(c1)OCCc1cc(CN3CCNCC3)cc(c1)N2` [Example D191, 6-Chloro-19-(piperazin-1-ylmethyl)-14-oxa-2,4,8,23-tetraazatetracyclo[15.3.1.1(3,7).1(9,13)]tricosa-1(21),3(23),4,6,9(22),10,12,17,19-nonaene tris(trifluoroacetate)], the IC50 in assay [1] stood at 5.7 nM; in assay [2], 34 nM; in assay [3], 1.4 nM; in assay [4], 8.9 nM.

For the molecule `O=C(C[C@@H]1CCCNC1)Nc1ccc2cc1CCc1cccc(c1)Nc1ncc(Cl)c(n1)N2` [Example D192, N-[6-Chloro-2,4,8,22-tetraazatetracyclo[14.3.1.1(3,7).1(9,13)]docosa-1(20),3(22),4,6,9(21),10,12,16,18-nonaen-12-yl]-2-[(3S)-piperidin-3-yl]acetamidebis(trifluoroacetate)], the IC50 worked out at 104 nM in assay [1], 4.7 nM in assay [2], 9.8 nM in assay [3] and 13 nM in assay [4].

Take `O=C(C[C@H]1CCCNC1)Nc1ccc2cc1CCc1cccc(c1)Nc1ncc(Cl)c(n1)N2` [Example D193, N-[6-Chloro-2,4,8,22-tetraazatetracyclo[14.3.1.1(3,7).1(9,13)]docosa-1(20),3(22),4,6,9(21),10,12,16,18-nonaen-12-yl]-2-[(3R)-piperidin-3-yl]acetamidebis(trifluoroacetate)]: the IC50 in assay [1] was 32 nM; in assay [2], 1.4 nM; in assay [3], 8.3 nM; in assay [4], 6.1 nM.

Take `O=C(C[C@@H]1CCCNC1)Nc1ccc2cc1CCc1cncc(c1)Nc1ncc(Cl)c(n1)N2` [Example D194, N-[6-Chloro-2,4,8,18,22-pentaazatetracyclo[14.3.1.1(3,7).1(9,13)]docosa-1(20),3(22),4,6,9(21),10,12,16,18-nonaen-12-yl]-2-[(3S)-piperidin-3-yl]acetamidetris(trifluoroacetate)]: the IC50 in assay [1] was 144 nM; in assay [2] it was 5.8 nM; in assay [3], 46 nM; in assay [4], 23 nM.

For the molecule `O=C(C[C@H]1CCCNC1)Nc1ccc2cc1CCc1cncc(c1)Nc1ncc(Cl)c(n1)N2` [Example D195, N-[6-Chloro-2,4,8,18,22-pentaazatetracyclo[14.3.1.1(3,7).1(9,13)]docosa-1(20),3(22),4,6,9(21),10,12,16,18-nonaen-12-yl]-2-[(3R)-piperidin-3-yl]acetamidetris(trifluoroacetate)], the IC50 was 355 nM in assay [1], 18 nM in assay [2], 54 nM in assay [3] and 31 nM in assay [4].

Take `O=C(C[C@@H]1CCCN(C(=O)Nc2ccccc2)C1)Nc1ccc2cc1CCc1cccc(c1)Nc1ncc(Cl)c(n1)N2` [Example D196, (3S)-3-(2-{[6-Chloro-2,4,8,22-tetraazatetracyclo[14.3.1.1(3,7).1(9,13)]docosa-1(20),3(22),4,6,9(21),10,12,16,18-nonaen-12-yl]amino}-2-oxoethyl)-N-phenylpiperidine-1-carboxamide trifluoroacetate]: the IC50 in assay [1] turned out to be 57 nM; in assay [2], 11 nM; in assay [3], 6.4 nM; in assay [4] it was 31 nM.

For the molecule `O=C(C[C@H]1CCCN(C(=O)Nc2ccccc2)C1)Nc1ccc2cc1CCc1cccc(c1)Nc1ncc(Cl)c(n1)N2` [Example D197, (3R)-3-(2-{[6-Chloro-2,4,8,22-tetraazatetracyclo[14.3.1.1(3,7).1(9,13)]docosa-1(20),3(22),4,6,9(21),10,12,16,18-nonaen-12-yl]amino}-2-oxoethyl)-N-phenylpiperidine-1-carboxamide trifluoroacetate], the IC50 in assay [1] amounted to 44 nM; in assay [2], 16 nM; in assay [3], 9 nM; in assay [4] it was 34 nM.

Turning to `O=C(C[C@@H]1CCCN(C(=O)Nc2ccccc2)C1)Nc1ccc2cc1CCc1cncc(c1)Nc1ncc(Cl)c(n1)N2` [Example D198, (3S)-3-(2-{[6-Chloro-2,4,8,18,22-pentaazatetracyclo[14.3.1.1(3,7).1(9,13)]docosa-1(20),3(22),4,6,9(21),10,12,16,18-nonaen-12-yl]amino}-2-oxoethyl)-N-phenylpiperidine-1-carboxamide bis(trifluoroacetate)], the IC50 in assay [1] is 69 nM; in assay [2] it was 5.7 nM; in assay [3], 10 nM; in assay [4] it was 27 nM.

In the case of `O=C(C[C@H]1CCCN(C(=O)Nc2ccccc2)C1)Nc1ccc2cc1CCc1cncc(c1)Nc1ncc(Cl)c(n1)N2` [Example D199, (3R)-3-(2-{[6-Chloro-2,4,8,18,22-pentaazatetracyclo[14.3.1.1(3,7).1(9,13)]docosa-1(20),3(22),4,6,9(21),10,12,16,18-nonaen-12-yl]amino}-2-oxoethyl)-N-phenylpiperidine-1-carboxamide bis(trifluoroacetate)], the IC50 in assay [1] turned out to be 65 nM; in assay [2], 5.7 nM; in assay [3] it was 8 nM; in assay [4], 21 nM.

On to `CC(=O)N1CCC[C@@H](CC(=O)Nc2ccc3cc2CCc2cccc(c2)Nc2ncc(Cl)c(n2)N3)C1` [Example D200, 2-[(3S)-1-Acetylpiperidin-3-yl]-N-[6-chloro-2,4,8,22-tetraazatetracyclo[14.3.1.1(3,7).1(9,13)]docosa-1(20),3(22),4,6,9(21),10,12,16,18-nonaen-12-yl]acetamide trifluoroacetate], for which the IC50 in assay [1] was 34 nM; in assay [2], 8.1 nM; in assay [3], 9.3 nM; in assay [4], 12 nM.

Regarding `CC(=O)N1CCC[C@H](CC(=O)Nc2ccc3cc2CCc2cccc(c2)Nc2ncc(Cl)c(n2)N3)C1` [Example D201, 2-[(3R)-1-Acetylpiperidin-3-yl]-N-[6-chloro-2,4,8,22-tetraazatetracyclo[14.3.1.1(3,7).1(9,13)]docosa-1(20),3(22),4,6,9(21),10,12,16,18-nonaen-12-yl]acetamide trifluoroacetate], the IC50 in assay [1] came out at 29 nM; in assay [2], 19 nM; in assay [3], 10 nM; in assay [4], 35 nM.

As to `O=C(C[C@@H]1CCCN(C(=O)c2ccccc2)C1)Nc1ccc2cc1CCc1cccc(c1)Nc1ncc(Cl)c(n1)N2` [Example D202, 2-[(3S)-1-Benzoylpiperidin-3-yl]-N-[6-chloro-2,4,8,22-tetraazatetracyclo[14.3.1.1(3,7).1(9,13)]docosa-1(20),3(22),4,6,9(21),10,12,16,18-nonaen-12-yl]acetamide trifluoroacetate], the IC50 in assay [1] was found to be 65 nM; in assay [2], 22 nM; in assay [3], 12 nM; in assay [4], 30 nM.

For `O=C(C[C@H]1CCCN(C(=O)c2ccccc2)C1)Nc1ccc2cc1CCc1cccc(c1)Nc1ncc(Cl)c(n1)N2` [Example D203, 2-[(3R)-1-Benzoylpiperidin-3-yl]-N-[6-chloro-2,4,8,22-tetraazatetracyclo[14.3.1.1(3,7).1(9,13)]docosa-1(20),3(22),4,6,9(21),10,12,16,18-nonaen-12-yl]acetamide trifluoroacetate], the IC50 in assay [1] is 85 nM; in assay [2] it was 32 nM; in assay [3], 13 nM; in assay [4], 70 nM.

On to `CC(=O)N1CCC[C@@H](CC(=O)Nc2ccc3cc2CCc2cncc(c2)Nc2ncc(Cl)c(n2)N3)C1` [Example D204, 2-[(3S)-1-Acetylpiperidin-3-yl]-N-[6-chloro-2,4,8,18,22-pentaazatetracyclo[14.3.1.1(3,7).1(9,13)]docosa-1(20),3(22),4,6,9(21),10,12,16,18-nonaen-12-yl]acetamide bis(trifluoroacetate)], for which the IC50 in assay [1] came to 101 nM; in assay [2], 7.2 nM; in assay [3], 12 nM; in assay [4] it was 12 nM.

Turning to `CC(=O)N1CCC[C@H](CC(=O)Nc2ccc3cc2CCc2cncc(c2)Nc2ncc(Cl)c(n2)N3)C1` [Example D205, 2-[(3R)-1-Acetylpiperidin-3-yl]-N-[6-chloro-2,4,8,18,22-pentaazatetracyclo[14.3.1.1(3,7).1(9,13)]docosa-1(20),3(22),4,6,9(21),10,12,16,18-nonaen-12-yl]acetamide bis(trifluoroacetate)], the IC50 came out at 107 nM in assay [1], 7.1 nM in assay [2], 15 nM in assay [3] and 25 nM in assay [4].

Regarding `O=C(C[C@@H]1CCCN(C(=O)c2ccccc2)C1)Nc1ccc2cc1CCc1cncc(c1)Nc1ncc(Cl)c(n1)N2` [Example D206, 2-[(3S)-1-Benzoylpiperidin-3-yl]-N-[6-chloro-2,4,8,18,22-pentaazatetracyclo[14.3.1.1(3,7).1(9,13)]docosa-1(20),3(22),4,6,9(21),10,12,16,18-nonaen-12-yl]acetamide bis(trifluoroacetate)], the IC50 in assay [1] turned out to be 147 nM; in assay [2], 9.2 nM; in assay [3] it was 14 nM; in assay [4], 13 nM.

Turning to `O=C(C[C@H]1CCCN(C(=O)c2ccccc2)C1)Nc1ccc2cc1CCc1cncc(c1)Nc1ncc(Cl)c(n1)N2` [Example D207, 2-[(3R)-1-Benzoylpiperidin-3-yl]-N-[6-chloro-2,4,8,18,22-pentaazatetracyclo[14.3.1.1(3,7).1(9,13)]docosa-1(20),3(22),4,6,9(21),10,12,16,18-nonaen-12-yl]acetamide bis(trifluoroacetate)], the IC50 was found to be 109 nM in assay [1], 9.4 nM in assay [2], 5.4 nM in assay [3] and 56 nM in assay [4].
